The values below come from US11524011B2, “H3K27 demethylase inhibitors in pediatric and juvenile osteoporosis” (THE JOHNS HOPKINS UNIVERSITY, priority 2017, dated 2022).

“Also recorded” adds a separate entry of the source.

The subject of data set [1] is BALB/c mice. Put plainly: GSK-J4 in glucocorticoid (MPS)-treated young BALB/c mice: body weight, tail length, bone loss (μCT), angiogenesis and osteogenesis. How it is done:
FIGS. 10A-10B. […] Body weight (10A) and Tail length (10B) were monitored at 2, 3, and 4 weeks after treatment. FIGS. 11A-11F. […] (11A) Representative μCT images of distal femur. Quantitative analyses of Femur length (11B), Trabecular bone volume fraction (BV/TV) (11C), trabecular number (Tb.N) (11D), trabecular thickness (Tb.Th) (11E), and trabecular separation (Tb.Sp) (11F). […] FIGS. 12A-12F. […] (12A-B) Double-immunofluorescence staining of femur sections was performed using antibodies against nestin (green) and H3K27me3 (red) (12A). Quantification of the percentage of nestin^+ cells that express H3K27me3 in the primary spongiosa (12B). Immunofluorescence staining of femur sections using antibody against osterix (Osx) (12C). Quantitative analysis of Osx^+ cells in the primary spongiosa (12D). Double-immunofluorescence staining of femur sections was performed using antibodies against CD31 (green) and endomucin (Emcn) (red) (12E). […] DAPI stains nuclei blue. Seven mice per group. GP, growth plate. PS, primary spongiosa. Mice femora were dissected, fixed overnight in 70% ethanol, and analyzed by high-resolution μCT (Skyscan 1172, Bruker MicroCT, Kontich, Belgium). We used NRecon image reconstruction software, version 1.6, (Bruker MicroCT), CTAn data-analysis software, version 1.9 (Bruker MicroCT), and CTVol 3-dimensional model visualization software, version 2.0, (Bruker MicroCT) to analyze parameters of the trabecular bone in the metaphysis and cortical bone in the mid-diaphysis. The scanner was set at 50 kVp, […]. Cross-sectional images of the distal femur were used to perform 3-dimensional histomorphometric analysis of trabecular bone. The sample area selected for analyses was a 2-mm length of the metaphyseal secondary spongiosa, originating 1.0 mm below the epiphyseal growth plate and extending caudally. Cortical morphometry was analyzed within a 600-μm long section at mid-diaphysis of the femur and included measurements of average thickness and cross-sectional area. […] Nuclei were counterstained with DAPI (Sigma).

In data set [2] the test system is childhood cancer diffuse intrinsic pontine glioma. To be noted: preclinical studies; cited from earlier work.
Data set [3] deals with BALB/c mice. To be noted: MPS daily for 2 weeks; compared to controls.
Protocol: Four-week-old BALB/c mice were treated with methylprednisolone (MPS) or vehicle daily for 2 weeks. (8A) A schematic illustration of the steps to isolate CD144^+ vascular endothelial cells from femoral metaphyses. […] (8D-8G) Quantitative RT-PCR analysis of ki67 (8D) p16^INK4a (8E), p53 (8F), and p21^CIP1 (8G) expression in the sorted CD144^+ cells. n=3, Data are represented as mean±s.e.m. *p<0.01 as determined by Student's t-tests.
Data set [4] concerns Nestin-GFP mice. Put plainly: Prednisolone treatment of early pubertal Nestin-GFP mice: cellular senescence / nestin expression in femoral primary spongiosa. Format: in vivo, mouse. How it is done: (§1) FIGS. 4A-4L. Cellular Senescence in Primary Spongiosa of Long Bone is Decelerated in Growth Hormone (GH)-Treated Mice and Accelerated in Prednisolone-Treated Mice. (4A-4F) Four week-old Nestin-GFP mice were treated with recombinant mouse-GH (5 mg/kg·B·W.) or Vehicle by daily intraperitoneal injection for 4 weeks. Immunofluorescence staining of femur sections were performed using antibodies against GFP (green) (4A) or Ki67 (red) (4E). Images in upper panels in (4A) and (4E) are lower power with boxes outlining the area of higher power in lower panels. Quantification of the number of GFP+ (4B) or Ki67+ (4F) cells in femoral primary spongiosa. […] (4G-4L) Two-week-old Nestin-GFP mice were treated with prednisolone (10 mg/m^2/day) or Vehicle by daily intraperitoneal injection for 2 weeks. Immunofluorescence staining of femur sections were performed using antibodies against GFP (green) (4G) or Ki67 (red) (4K). Images in upper panels in (4G) and (4K) are lower power with boxes outlining the area of higher power in lower panels. Quantification of the number of GFP+ (4H) or Ki67+ (4L) cells in femoral primary spongiosa. […] Five mice per group. […] GP, growth plate.
(§2) For flow cytometric analysis and sorting of CD45-GFP− and CD45-GFP+ mesenchymal progenitor cells (MPCs) from femoral metaphysis, we dissected the femora free of soft tissues from Nestin-GFP mice. The epiphysis was removed and only the 3-mm-long metaphysis regions were processed. The bone was then digested with a protease solution (2 mg/mL collagenase A and 2.5 mg/mL trypsin in phosphate buffered saline [PBS]) for 20 minutes to remove the periosteum and periosteal progenitors (step I). […]
One of the major causes of secondary osteoporosis in children is the use of glucocorticoids for treatment of underlying chronic medical problems, such as autoimmune or inflammatory disorders. […] We thus assessed whether glucocorticoid-treated early pubertal mice display premature cellular senescence in primary spongiosa by injecting mice daily with prednisolone from age 2 weeks to 4 weeks.

Data set [5] relates to Nestin-GFP mice. Put plainly: Growth hormone treatment of pubertal Nestin-GFP mice: cellular senescence / nestin expression in femoral primary spongiosa. Format: in vivo, mouse. How it is done: as §1
as §2, with “I). The bones were cut into small pieces and digested in the protease solution for another 1 hour (C, step II).” for “I).”
We tested whether the progression of the cellular senescence in primary spongiosa of long bone, as indicated by loss of nestin expression, is associated with bone growth/accrual. […] We assessed changes in nestin expression in the femoral primary spongiosa in pubertal mice after administration of recombinant GH. […]

[6] abbreviates: MPS plus GSK-J4 10 mg/kg b.w. daily for 4 weeks, compared to MPS alone and to controls.
[7] abbreviates: summary statement, glucocorticoid-treated mice.

For `CCOC(=O)CCNc1cc(N2CCc3ccccc3CC2)nc(-c2ccccn2)n1` [GSK-J4, N-[2-(2-Pyridinyl)-6-(1,2,4,5-tetrahydro-3H-3-benzazepin-3-yl)-4-pyrimidinyl]-β-alanine ethyl ester], in the data set on BALB/c mice [1] (MPS plus GSK-J4 10 mg/kg b.w. daily for 4 weeks, 10 mg/kg), the “bone loss phenotype induced by MPS (μCT of distal femur: femur length, BV/TV, Tb.N, Tb.Th, Tb.Sp)” value was “at least partially reversed; also recorded: rescued”. Besides, in the data set with BALB/c mice [1] (setting [6]), the “angiogenesis in femoral primary spongiosa (CD31 / Emcn fluorescence intensities)” value is “greatly improve” and the “osteogenesis in femoral primary spongiosa (Osx+ cells)” value is given as “greatly improve”. Also, in the data set with BALB/c mice [1] (concurrent treatment, MPS plus GSK-J4 10 mg/kg b.w. daily, 2, 3 and 4 weeks), the “MPS-induced shortening of tail length” value was “abolished”. Also, in the data set with BALB/c mice [1] (summary statement), the glucocorticoid-induced growth retardation result is reported as “rescued”. Also, in the data set on BALB/c mice [1] (setting [7]), the H3K27 methylation entry was “elevated” and the “early onset cellular senescence” value was “blocked”. The “growth of childhood cancer diffuse intrinsic pontine glioma” value in data set [2] is “effectively inhibit”.
For the molecule `C[C@H]1C[C@@H]2[C@H]([C@@H](O)C[C@@]3(C)[C@H]2CC[C@]3(O)C(=O)CO)[C@@]2(C)C=CC(=O)C=C12` [MPS, methylprednisolone], the tail length entry in the data set with BALB/c mice [1] (MPS alone daily, 2, 3 and 4 weeks, compared with controls) is listed as “significantly shortened”. Besides, the body weight result in the data set on BALB/c mice [1] (MPS alone daily, monitored at 2, 3 and 4 weeks after treatment) is “no significant effect”. In addition, in the data set with BALB/c mice [3], the “ki67 expression in sorted CD144+ cells (quantitative RT-PCR)” value is reported as “less”, the “p16^INK4a expression in sorted CD144+ cells (quantitative RT-PCR)” value is “increased”, the “p21^CIP1 expression in sorted CD144+ cells (quantitative RT-PCR)” value is reported as “increased” and the “p53 expression in sorted CD144+ cells (quantitative RT-PCR)” value is recorded as “increased”.
On to `C[C@]12C=CC(=O)C=C1CC[C@@H]1[C@@H]2[C@@H](O)C[C@@]2(C)[C@H]1CC[C@]2(O)C(=O)CO` [prednisolone], for which the “senescence of the cells in primary spongiosa” value with Nestin-GFP mice [4] (mice treated with prednisolone) was “accelerated”. In addition, in the data set with Nestin-GFP mice [4] (prednisolone 10 mg/m^2/day daily i.p. for 2 weeks, vs vehicle), the “Ki67+ proliferative cells in femoral primary spongiosa” value is “reduced”. The “number of Nestin-GFP+ cells in femoral primary spongiosa (immunofluorescence staining and flow cytometry)” value in the data set on Nestin-GFP mice [4] (prednisolone 10 mg/m^2/day daily i.p. from age 2 weeks to 4 weeks, relative to vehicle-treated mice) was “significantly reduced”.

B1: GH: recombinant mouse growth hormone (protein, UniProt P06880 27-216, looked up)
Somatotropin: FPAMPLSSLFSNAVLRAQHLHQLAADTYKEFERAYIPEGQRYSIQNAQAAFCFSETIPAPTGKEEAQQRTDMELLRFSLLLIQSWLGPVQFLSRIFTNSLMFGTSDRVYEKLKDLEEGIQALMQELEDGSPRVGQILKQTYDKFDANMRSDDALLKNYGLLSCFKKDLHKAETYLRVMKCRRFVESSCAF
B1: the “percentage of Ki67+ proliferative cells in primary spongiosa” value in the data set on Nestin-GFP mice [5] (GH 5 mg/kg daily i.p. for 4 weeks, relative to vehicle-treated mice) is “higher”. The “senescence of the cells in primary spongiosa” value in the data set with Nestin-GFP mice [5] (mice treated with growth hormone) is reported as “reduced”. In the data set with Nestin-GFP mice [5] (recombinant mouse-GH 5 mg/kg B.W. daily intraperitoneal injection for 4 weeks from 4 weeks of age, vs vehicle-treated mice), the “Nestin-GFP+ cells in primary spongiosa (immunofluorescence staining)” value is listed as “significantly increased”.
